Data taken from the supplement of paper PMC10307832.

Assays:
Assay in all cases: relative viability (nuclei count vs DMSO), 5 days (fraction); higher = more cells survive
[1] = compound: CC(O)(CS(=O)(=O)c1ccc(F)cc1)C(=O)Nc1ccc(C#N)c(C(F)(F)F)c1 [Bicalutamide] + O=C(CCCCCCC(=O)Nc1ccccc1)NO [Vorinostat] (partner 1 µM)
In short: (§1)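 Relative viability equals treated-well nuclei counts divided by vehicle-well nuclei counts. Counts came from 4× images of lung cancer cell lines grown in 1536-well plates for 5 days after pin-tool dosing on the day after seeding. Dosing used one drug alone or a fixed anchor-drug dose plus five library-drug doses (not always all listed) in √10 steps, and values are medians of duplicate plates.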

[2] = compound: C(C(=O)C(=O)O)Br [Bromopyruvate] + C[C@]1(O)C[C@@H](c2nc(-c3ccc4ccc(-c5ccccc5)nc4c3)c3c(N)nccn32)C1 [Linsitinib] (partner 1 µM)
In short: as §1

[3] = compound: C(C(=O)C(=O)O)Br [Bromopyruvate] + CS(=O)(=O)CCNCc1ccc(-c2ccc3ncnc(Nc4ccc(OCc5cccc(F)c5)c(Cl)c4)c3c2)o1 [Lapatinib] (partner 2 µM)
In short: as §1

[4] = compound: CC(O)(CS(=O)(=O)c1ccc(F)cc1)C(=O)Nc1ccc(C#N)c(C(F)(F)F)c1 [Bicalutamide] + CC(=O)Nc1cccc(-n2c(=O)n(C3CC3)c(=O)c3c(Nc4ccc(I)cc4F)n(C)c(=O)c(C)c32)c1 [Trametinib] (partner 0.02 µM)
In short: as §1

UMC-11
relative viability ([1]; first compound 0.08 µM): 0.436
relative viability ([1]; first compound 0.253 µM): 0.387
relative viability ([1]; first compound 0.8 µM): 0.403
relative viability ([1]; first compound 2.53 µM): 0.264
relative viability ([2]; first compound 1 µM): 1.03
relative viability ([2]; first compound 3.162 µM): 1.08
relative viability ([2]; first compound 10 µM): 0.884
relative viability ([2]; first compound 31.62 µM): 0.987
relative viability ([2]; first compound 100 µM): 1.03
relative viability ([3]; first compound 1 µM): 1.15
relative viability ([3]; first compound 3.162 µM): 0.976
relative viability ([3]; first compound 10 µM): 1.11
relative viability ([3]; first compound 31.62 µM): 0.966
relative viability ([3]; first compound 100 µM): 1.03
relative viability ([4]; first compound 0.08 µM): 0.771
relative viability ([4]; first compound 0.253 µM): 0.572
relative viability ([4]; first compound 0.8 µM): 0.808
relative viability ([4]; first compound 2.53 µM): 0.686
